Data: patent US5202324A, “Imidazopyridazines” (Takeda Chemical Industries, Ltd., priority 1989, dated 1993)

System: bronchoconstriction induced by PAF
Experiment: Effect on bronchoconstriction induced by platelet activating factor (PAF) in guinea pigs (Konzett-Rossler method)
Type: in vivo, guinea pig (male Hartley)
Settings: Cavia porcellus, po, drug 30 mg/kg orally in 5% gum arabic solution 1 hour before PAF (1 μg/kg i.v.), recorded for 15 minutes
Experimental: Effect on Bronchoconstriction Induced by Platelet Activating Factor (PAF) in Guinea Pigs
Male Hartley guinea pigs (body weight 500 g) were used. The bronchoconstriction reaction in the guinea pig which has intravenously received PAF (1 μg/Kg) was measured by the Konzett-Rossler method. The trachea of the guinea pig with its back fixed was incised under anesthesia condition with urethane (intraperitoneal injection, 1.5 g/kg) and connected with an artificial respirator via a cannula. The branch of the tracheal cannula was connected with a transducer (7020 type, Ugobasile). Air was sent to the trachea at the volume of 3-7 ml/stroke, at the rate of 70 strokes/min. at load pressure of 10 cm H2 O to lung and overflowed air volume was recorded with Rectegraph (Recte-Hori-8s, Sanei Sokuki) via the transducer. After the guinea pig was treated with galamine (1 mg/kg, i.v.), PAF (1 μg/kg) dissolved in a physiological saline solution was administered to the guinea pig via a jugular venous cannula and the bronchoconstriction reaction induced thereby was recorded for 15 minutes. The drug (30 mg/kg) suspended in a 5% gum arabic solution was administered orally 1 hour before the injection of PAF.

| Compound | inhibition in vivo at 30 mg/kg [%] |
| --- | --- |
| CNS(=O)(=O)CCCSc1ccc2nccn2n1 [Example 3] | 41 |
| O=S(=O)(CCCSc1ccc2nccn2n1)NC1CC1 [Example 6] | 47 |
